≈ marks a conversion by molar mass, not a printed value.
Assays:
[1] = Aqueous solubility of the compound at pH 9; assay type: physicochemical; conditions: aqueous solution, read-out: solubility
[2] = biological target: T1, P-selectin glycoprotein ligand 1 (Homo sapiens) (UniProt Q14242); experiment: Inhibition of recombinant PSGL-1 at 250 uM by surface plasmon resonance assay
T1 sequence (whole entry): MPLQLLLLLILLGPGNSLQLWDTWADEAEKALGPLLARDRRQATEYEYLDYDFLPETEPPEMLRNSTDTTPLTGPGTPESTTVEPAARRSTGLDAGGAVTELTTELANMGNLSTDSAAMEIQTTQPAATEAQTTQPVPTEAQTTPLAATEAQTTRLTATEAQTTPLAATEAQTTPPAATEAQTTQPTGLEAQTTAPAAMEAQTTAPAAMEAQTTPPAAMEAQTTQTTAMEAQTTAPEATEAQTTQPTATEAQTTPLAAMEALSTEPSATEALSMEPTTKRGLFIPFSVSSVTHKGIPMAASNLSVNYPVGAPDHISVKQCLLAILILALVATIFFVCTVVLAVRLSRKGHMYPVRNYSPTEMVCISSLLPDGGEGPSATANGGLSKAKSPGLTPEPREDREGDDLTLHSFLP

[3] = biological target: T1, P-selectin glycoprotein ligand 1 (Homo sapiens); experiment: Binding affinity to recombinant PSGL-1 assessed as saturation transfer difference at 100 uM by NMR analysis
[4] = Solubility of the compound in simulated intestinal fluid; assay type: physicochemical
[5] = Solubility of the compound in fed simulated intestinal bile salts-lecithin mixture fluid at pH 5.5; assay type: physicochemical
[6] = Solubility of the compound in fasted simulated intestinal bile salts-lecithin mixture fluid at pH 6; assay type: physicochemical
[7] = Physiological stability of the compound at pH 1 assessed as compound remaining after 16 hrs in presence of 20% acetonitrile; assay type: physicochemical; conditions: read-out: Stability
[8] = Physiological stability of the compound at pH 1 assessed as compound remaining after 20 hrs in presence of 20% acetonitrile; assay type: physicochemical; conditions: read-out: Stability
[9] = Physiological stability of the compound at pH 1 assessed as compound remaining after 24 hrs in presence of 20% acetonitrile; assay type: physicochemical; conditions: read-out: Stability
[10] = Physiological stability of the compound at pH 4.5 assessed as compound remaining after 8 hrs in presence of 20% acetonitrile; assay type: physicochemical; conditions: read-out: Stability
[11] = Physiological stability of the compound at pH 6.6 assessed as compound remaining after 8 hrs in presence of 20% acetonitrile; assay type: physicochemical; conditions: read-out: Stability
[12] = Physiological stability of the compound at pH 7.4 assessed as compound remaining after 4 hrs in presence of 20% acetonitrile; assay type: physicochemical; conditions: read-out: Stability
[13] = Physiological stability of the compound at pH 7.4 assessed as compound remaining after 8 hrs in presence of 20% acetonitrile; assay type: physicochemical; conditions: read-out: Stability
[14] = Physiological stability of the compound at pH 9 assessed as compound remaining after 12 hrs in presence of 20% acetonitrile; assay type: physicochemical; conditions: read-out: Stability
[15] = Physiological stability of the compound in simulated intestinal fluid assessed as compound remaining after 4 hrs in presence of 20% acetonitrile; assay type: physicochemical; conditions: read-out: Stability
[16] = Physiological stability of the compound in simulated intestinal fluid assessed as compound remaining after 8 hrs in presence of 20% acetonitrile; assay type: physicochemical; conditions: read-out: Stability
[17] = Physiological stability of the compound in simulated intestinal bile salts-lecithin mixture fluid assessed as compound remaining after 4 hrs in presence of 20% acetonitrile; assay type: physicochemical; conditions: read-out: Stability
[18] = Physiological stability of the compound in simulated intestinal bile salts-lecithin mixture fluid assessed as compound remaining after 12 hrs in presence of 20% acetonitrile; assay type: physicochemical; conditions: read-out: Stability
[19] = Physiological stability of the compound in simulated intestinal bile salts-lecithin mixture fluid assessed as compound remaining after 16 hrs in presence of 20% acetonitrile; assay type: physicochemical; conditions: read-out: Stability
[20] = Permeability from apical to basolateral side in human Caco-2 cells; assay type: ADME, cell-based
[21] = Permeability from basolateral to apical side in human Caco-2 cells; assay type: ADME, cell-based
[22] = Half life in C57B6 mouse liver microsomes; assay type: ADME, Microsome
[23] = Half life in human liver microsomes; assay type: ADME, Microsome
[24] = Oral bioavailability in Beagle dog at 10 mg/kg; assay type: ADME, organism-based, Canis lupus familiaris; conditions: in vivo
[25] = system: Cynomolgus monkey; experiment: Dose normalized AUC in cynomolgus monkey measured per mg of plasma at 5 mg/kg, iv and po; assay type: ADME, organism-based, Macaca fascicularis; parameters: dose 5 mg/kg, route oral; conditions: in vivo
[26] = system: Rattus norvegicus; experiment: Inhibition of leukocytes rolling flux in acute intravital microscopy model of Sprague-Dawley rat cremasteric postcapillary venules at 7.5 mg/kg, po after 35 mins relative to control; assay type: functional
[27] = system: Rattus norvegicus; experiment: Inhibition of leukocytes rolling flux in acute intravital microscopy model of Sprague-Dawley rat cremasteric postcapillary venules at 15 mg/kg, po after 35 mins relative to control; assay type: functional
[28] = system: Plasma; experiment: Drug level in Sprague-Dawley rat plasma at 7.5 mg/kg, po; assay type: ADME, organism-based; parameters: dose 7.5 mg/kg, route oral; conditions: in vivo
[29] = system: Plasma; experiment: Drug level in Sprague-Dawley rat plasma at 15 mg/kg, po; assay type: ADME, organism-based; parameters: dose 15 mg/kg, route oral; conditions: in vivo
[30] = system: Rattus norvegicus; experiment: Inhibition of Sprague-Dawley rat neointimal hyperplasia carotid balloon injury model at 30 mg/kg, po once daily for 13 days; assay type: functional; conditions: 312 h
[31] = biological target: Voltage-gated inwardly rectifying potassium channel KCNH2 (Homo sapiens, UniProt Q12809); experiment: Inhibition of human ERG
Sequence of Voltage-gated inwardly rectifying potassium channel KCNH2 (Q12809 whole entry): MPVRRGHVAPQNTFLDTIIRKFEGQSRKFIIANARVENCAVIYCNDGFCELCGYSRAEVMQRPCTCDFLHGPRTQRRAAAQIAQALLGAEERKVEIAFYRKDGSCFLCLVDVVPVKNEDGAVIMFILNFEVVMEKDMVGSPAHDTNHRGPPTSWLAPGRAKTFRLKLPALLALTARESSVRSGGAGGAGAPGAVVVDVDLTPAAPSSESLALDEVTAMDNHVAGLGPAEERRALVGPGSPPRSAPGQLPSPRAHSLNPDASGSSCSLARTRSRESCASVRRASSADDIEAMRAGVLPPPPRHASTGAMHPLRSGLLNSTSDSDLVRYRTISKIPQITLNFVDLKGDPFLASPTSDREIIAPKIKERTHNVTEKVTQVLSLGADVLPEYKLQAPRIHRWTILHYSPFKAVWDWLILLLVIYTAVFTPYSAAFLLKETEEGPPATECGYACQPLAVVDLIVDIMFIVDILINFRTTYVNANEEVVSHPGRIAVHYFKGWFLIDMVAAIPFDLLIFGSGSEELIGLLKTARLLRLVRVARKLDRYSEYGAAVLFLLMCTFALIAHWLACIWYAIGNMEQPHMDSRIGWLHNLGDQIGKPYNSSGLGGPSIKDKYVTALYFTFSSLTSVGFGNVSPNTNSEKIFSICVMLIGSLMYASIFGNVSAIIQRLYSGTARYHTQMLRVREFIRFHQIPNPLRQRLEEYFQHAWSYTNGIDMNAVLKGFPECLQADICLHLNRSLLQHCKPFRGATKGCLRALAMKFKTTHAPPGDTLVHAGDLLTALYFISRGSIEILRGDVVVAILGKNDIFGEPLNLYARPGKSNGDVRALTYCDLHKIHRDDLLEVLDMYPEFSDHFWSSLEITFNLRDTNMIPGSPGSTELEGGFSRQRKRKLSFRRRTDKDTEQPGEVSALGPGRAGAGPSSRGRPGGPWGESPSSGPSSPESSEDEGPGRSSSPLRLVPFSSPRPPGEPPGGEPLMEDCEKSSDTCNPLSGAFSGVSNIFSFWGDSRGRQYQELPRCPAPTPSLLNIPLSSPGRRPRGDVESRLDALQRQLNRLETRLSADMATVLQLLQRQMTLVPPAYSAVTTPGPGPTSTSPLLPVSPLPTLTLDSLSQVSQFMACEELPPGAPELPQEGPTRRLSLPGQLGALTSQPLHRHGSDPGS

solubility [1]: 1070 µg/mL (≈ 2.63 mM) | inhibition [2]: 55% | Activity [3]: 9% | solubility [4]: 3950 µg/mL (≈ 9.69 mM) | solubility [5]: 835 µg/mL | solubility [6]: 87 µg/mL | remaining at 16 h [7]: 102% | remaining at 20 h [8]: 102% | remaining at 24 h [9]: 101% | remaining at 8 h [10]: 102% | remaining at 8 h [11]: 104% | remaining at 4 h [12]: 102% | remaining at 8 h [13]: 102% | remaining at 12 h [14]: 98.8% | remaining at 4 h [15]: 101% | remaining at 8 h [16]: 104% | remaining at 4 h [17]: 102% | remaining at 12 h [18]: 101% | remaining at 16 h [19]: 102% | Papp A→B [20]: 5.1 ×10⁻⁶ cm/s | Papp B→A [21]: 9.8 ×10⁻⁶ cm/s | half-life [22]: > 1 h | half-life [23]: > 1 h | bioavailability [24]: 100% | AUC [25]: 84620 ng·h/mL | Cp [28]: 6000 ng/mL | Cp [29]: 24000 ng/mL
Structure (SMILES): O=C(O)c1c(O)c(C2(c3ccc(Cl)cc3)CC2)nc2c(C(F)(F)F)cccc12
inhibition in vivo at 7.5 mg/kg [26]: 47% | inhibition in vivo at 15 mg/kg [27]: 51% | inhibition in vivo at 30 mg/kg [30]: 31% | inhibition (INH) [31]: Not Active

Reference: ChEMBL document CHEMBL1212936, “Discovery of 2-[1-(4-chlorophenyl)cyclopropyl]-3-hydroxy-8-(trifluoromethyl)quinoline-4-carboxylic acid (PSI-421), a P-selectin inhibitor with improved pharmacokinetic properties and oral efficacy in models of vascular injury” (J Med Chem, 2010)
